Laboratory results: patent publication US8993565B2, “(6-oxo-1,6-dihydropyrimidin-2-yl)amide derivatives, preparation thereof and pharmaceutical use thereof as AKT(PKB) phosphorylation inhibitors” (Sanofi, priority 2009, dated 2015)

Each compound was assayed on AKT protein phosphorylated on serine 473 (P-AKT-S473) (assay: Study of pAKT expression in PC3 human prostate carcinoma cells measured by the MSD Multi-spot Biomarker Detection technique (Test B)). Settings: PC-3, inhibition of AKT phosphorylation (P-AKT-S473), MSD sandwich immunoassay, 1 to 2 h incubation, absolute IC50, mean of 2 experiments.
Type: cell-based
Procedure: The inhibitory activity of the molecules on AKT phosphorylation is measured either by western blotting using the technique described below, or by the MSD Multi-spot Biomarker detection technique from Meso Scale Discovery also described below.
Study of pAKT Expression in PC3 Human Prostate Carcinoma Cells Measured by the MSD Multi-Spot Biomarker Detection Technique from Meso Scale Discovery (Test B):
The primary antibody specific for P-AKT-S473 (Kit #K151CAD) is coated on to an electrode in each well of the 96-well plates of the MSD, kit: after the addition of a protein lysate to each well, the signal is visualised by adding a secondary detection antibody labelled with an electrochemoluminescent compound. The procedure followed is that described in the kit.
On day 2, the cells are incubated in the presence or absence of the test products for 1 to 2 h at 37° C. in the presence of 5% of CO2. The molecules, diluted in dimethyl sulphoxide (DMSO Sigma #D2650), are added from a 20-times concentrated stock solution, the final percentage of DMSO being 0.1%. The molecules are tested either at a single concentration of less than or equal to 10 μM, or at increasing concentrations in a range that can extend from less than 1 nM to 10 μM.
After this incubation, the cells are lysed for the preparation of the proteins. […] At this stage, the plates containing the lysates can be stored at −20° C. or at −80° C.
The wells of the 96-well plates of the MSD kit are saturated for 1 h at ambient temperature with the blocking solution of the MSD kit. Four washes are carried out with 150 μl of Tris Wash Buffer of the MSD kit. The lysates previously prepared are transferred into the 96-well multi-spot plates of the MSD kit and incubated for 1 h at ambient temperature, with shaking. Four washes are carried out with 150 μl of Tris Wash Buffer of the MSD kit. 25 μl of the MSD sulfo-tag detection antibody solution are added to the wells and incubated for 1 h at ambient temperature, with shaking. Four washes are carried out with 150 μl of Tris Wash Buffer of the MSD kit. 150 μl of Read Buffer of the MSD kit are added to the wells and the plates are read immediately on the S12400 instrument from Meso Scale Discovery.
The instrument measures a signal for each well. Wells without cells and containing the lysis buffer serve to determine the background noise that will be subtracted from all the measurements (min). The wells containing cells in the absence of product and in the presence of 0.1% DMSO are considered to be the 100% signal (max). The percentage inhibition is calculated for each concentration of test product according to the following formula: (1-((test-min)(max-min)))×100.
2 independent experiments make it possible to calculate the mean of the IC50 values.

Row | Compound | IC50 [µM]
1 | CN(C)c1cccc(NC(=O)Cc2nc(N3CCOCC3)cc(=O)[nH]2)c1 [Example 4, N-[3-(dimethylamino)phenyl]-2-[4-(morpholin-4-yl)-6-oxo-1,6-dihydropyrimidin-2-yl]acetamide] | 0.145
2 | O=C(Cc1nc(N2CCOCC2)cc(=O)[nH]1)Nc1ccsc1 [Example 7, 2-[4-(morpholin-4-yl)-6-oxo-1,6-dihydropyrimidin-2-yl]-N-(thiophen-3-yl)acetamide] | 0.023
3 | CC(C)(C)c1cccc(NC(=O)Cc2nc(N3CCOCC3)cc(=O)[nH]2)c1 [Example 19, N-[3-(2-methylpropan-2-yl)phenyl]-2-[4-(morpholin-4-yl)-6-oxo-1,6-dihydropyrimidin-2-yl]acetamide] | 0.042
4 | O=C(Cc1nc(N2CCOCC2)cc(=O)[nH]1)Nc1ccc(F)cn1 [Example 27, N-(5-fluoropyridin-2-yl)-2-[4-(morpholin-4-yl)-6-oxo-1,6-dihydropyrimidin-2-yl]acetamide] | 0.071
5 | O=C(Cc1nc(N2CCOCC2)cc(=O)[nH]1)Nc1cccnc1 [Example 30, 2-[4-(morpholin-4-yl)-6-oxo-1,6-dihydropyrimidin-2-yl]-N-(pyridin-3-yl)acetamide] | 1.03
6 | O=C(Cc1nc(N2CCOCC2)cc(=O)[nH]1)Nc1cccc(OC2CCCC2)c1 [Example 49, N-[3-(cyclopentyloxy)phenyl]-2-[4-(morpholin-4-yl)-6-oxo-1,6-dihydropyrimidin-2-yl]acetamide] | 0.146
7 | O=C(Cc1nc(N2CCOCC2)cc(=O)[nH]1)Nc1cc(Cl)c(F)c(Cl)c1 [Example 61, N-(3,5-dichloro-4-fluorophenyl)-2-[4-(morpholin-4-yl)-6-oxo-1,6-dihydropyrimidin-2-yl]acetamide] | 0.077
8 | O=C(Nc1ccc(F)cc1)C(F)(F)c1nc(N2CCOCC2)cc(=O)[nH]1 [Example 77, 2,2-difluoro-N-(4-fluorophenyl)-2-[4-(morpholin-4-yl)-6-oxo-1,6-dihydropyrimidin-2-yl]acetamide] | 0.698
9 | O=C(Cc1nc(N2CCOCC2)cc(=O)[nH]1)Nc1cccc2occc12 [Example 84, N-(1-benzofur-4-yl)-2-[4-(morpholin-4-yl)-6-oxo-1,6-dihydropyrimidin-2-yl]acetamide] | 0.017
10 | O=C(Cc1nc(N2CCOCC2)cc(=O)[nH]1)N1CCc2c(Cl)cccc21 [Example 89, 2-[2-(4-chloro-2,3-dihydro-1 H-indol-1-yl)-2-oxoethyl]-6-(morpholin-4-yl)pyrimidin-4(3 H)-one] | 0.003
11 | O=C(Cc1nc(N2CCOCC2)cc(=O)[nH]1)N1CCc2c(O)cccc21 [Example 91, 2-[2-(4-hydroxy-2,3-dihydro-1H-indol-1-yl)-2-oxoethyl]-6-(morpholin-4-yl)pyrimidin-4(3H)-one] | 0.071
12 | O=C(Cc1nc(N2CCOCC2)cc(=O)[nH]1)N1CCc2c(F)cc(F)cc21 [Example 92, 2-[2-(4,6-difluoro-2,3-dihydro-1H-indol-1-yl)-2-oxoethyl]-6-(morpholin-4-yl)pyrimidin-4(3H)-one] | 0.057
13 | O=C(Cc1nc(N2CCOCC2)cc(=O)[nH]1)N1CCc2c1ccc(F)c2F [Example 94, 2-[2-(4,5-difluoro-2,3-dihydro-1H-indol-1-yl)-2-oxoethyl]-6-(morpholin-4-yl)pyrimidin-4(3H)-one] | 0.011
14 | O=C(Cc1nc(N2CCOCC2)cc(=O)[nH]1)N1CCc2ccc(F)cc21 [Example 95, 2-[2-(6-fluoro-2,3-dihydro-′1H-indol-1-yl)-2-oxoethyl]-6-(morpholin-4-yl)pyrimidin-4(3H)-one] | 0.035
15 | CC1Cc2ccccc2N1C(=O)Cc1nc(N2CCOCC2)cc(=O)[nH]1 (stereo not drawn) [Example 96, 2-[2-(2-methyl-2,3-dihydro-1H-indol-1-yl)-2-oxoethyl]-6-(morpholin-4-yl)pyrimidin-4(3H)-one] | 0.006

Now from value to compound:

Row | IC50 [µM] | Compound
16 | 0.051 | O=C(Cc1nc(N2CCOCC2)cc(=O)[nH]1)Nc1ccc(F)cc1F [Example 5, N-(2,4-difluorophenyl)-2-[4-(morpholin-4-yl)-6-oxo-1,6-dihydropyrimidin-2-yl]acetamide]
17 | 0.247 | N#Cc1cc(NC(=O)Cc2nc(N3CCOCC3)cc(=O)[nH]2)ccc1F [Example 24, N-(3-cyano-4-fluorophenyl)-2-[4-(morpholin-4-yl)-6-oxo-1,6-dihydropyrimidin-2-yl]acetamide]
18 | 0.058 | Cc1cc(F)ccc1NC(=O)Cc1nc(N2CCOCC2)cc(=O)[nH]1 [Example 31, N-(4-fluoro-2-methylphenyl)-2-[4-(morpholin-4-yl)-6-oxo-1,6-dihydropyrimidin-2-yl]acetamide]
19 | 0.066 | O=C(Cc1nc(N2CCOCC2)cc(=O)[nH]1)Nc1ccc(F)c(F)c1F [Example 53, 2-[4-(morpholin-4-yl)-6-oxo-1,6-dihydropyrimidin-2-yl]-N-(2,3,4-trifluorophenyl)acetamide]
20 | 0.29 | O=C(Cc1nc(N2CCOCC2)cc(=O)[nH]1)Nc1cc(F)c(F)cc1F [Example 60, 2-[4-(morpholin-4-yl)-6-oxo-1,6-dihydropyrimidin-2-yl]-N-(2,4,5-trifluorophenyl)acetamide]
21 | 10 | O=C(Cc1nc(N2CCOCC2)cc(=O)[nH]1)Nc1ccc(F)c(C(=O)O)c1 [Example 64, 2-fluoro-5-(([4-(morpholin-4-yl)-6-oxo-1,6-dihydropyrimidin-2-yl]acetyl)amino)benzoic acid]
22 | 0.131 | O=C(Cc1nc(N2CCOCC2)cc(=O)[nH]1)Nc1ccc(F)cc1Br [Example 66, N-(2-bromo-4-fluorophenyl)-2-[4-(morpholin-4-yl)-6-oxo-1,6-dihydropyrimidin-2-yl]acetamide]
23 | 0.01 | O=C(Cc1nc(N2CCOCC2)cc(=O)[nH]1)Nc1ccc(F)c(I)c1 [Example 74, N-(4-fluoro-3-iodophenyl)-2-[4-(morpholin-4-yl)-6-oxo-1,6-dihydropyrimidin-2-yl]acetamide]
24 | 0.077 | O=C(Cc1nc(N2CCOCC2)cc(=O)[nH]1)Nc1ccc(F)c(C(F)F)c1 [Example 76]
25 | 0.129 | Cn1c(CC(=O)Nc2ccc(F)c(F)c2)nc(N2CCOCC2)cc1=O [Example 78, N-(3,4-difluorophenyl)-2-[1-methyl-4-(morpholin-4-yl)-6-oxo-1,6-dihydropyrimidin-2-yl]acetamide]
26 | 0.02 | Cn1c(CC(=O)N2CCc3ccccc32)nc(N2CCOCC2)cc1=O [Example 79, 2-[2-(2,3-dihydro-1 H-indol-1-yl)-2-oxoethyl]-3-methyl-6-(morpholin-4-yl)pyrimidin-4(3 H)-one]
27 | 0.094 | Cn1c(CC(=O)Nc2ccc(F)c(Br)c2)nc(N2CCOCC2)cc1=O [Example 80, N-(3-bromo-4-fluorophenyl)-2-[1-methyl-4-(morpholin-4-yl)-6-oxo-1,6-dihydropyrimidin-2-yl]acetamide]
28 | 1.94 | Cn1c(CC(=O)Nc2ccc(F)c(CO)c2)nc(N2CCOCC2)cc1=O [Example 81, N-[4-fluoro-3-(hydroxymethyl)phenyl]-2-[1-methyl-4-(morpholin-4-yl)-6-oxo-1,6-dihydropyrimidin-2-yl]acetamide]
29 | 0.115 | COc1cc(NC(=O)Cc2nc(N3CCOCC3)cc(=O)n2C)ccc1F [Example 83, N-(4-fluoro-3-methoxyphenyl)-2-[1-methyl-4-(morpholin-4-yl)-6-oxo-1,6-dihydropyrimidin-2-yl]acetamide]
30 | 0.34 | Cn1c(CC(=O)Nc2ccccc2)nc(N2CCOCC2)cc1=O [Example 85, 2-[1-methyl-4-(morpholin-4-yl)-6-oxo-1,6-dihydropyrimidin-2-yl]-N-phenylacetamide]
31 | 0.075 | O=C(Cc1nc(N2CCOCC2)cc(=O)[nH]1)Nc1cccc(F)c1O [Example 87, N-(3-fluoro-2-hydroxyphenyl)-2-[4-(morpholin-4-yl)-6-oxo-1,6-dihydropyrimidin-2-yl]acetamide]
32 | 0.014 | C#Cc1cc(NC(=O)Cc2nc(N3CCOCC3)cc(=O)[nH]2)ccc1F [Example 90, N-(3-ethynyl-4-fluorophenyl)-2-[4-(morpholin-4-yl)-6-oxo-1,6-dihydropyrimidin-2-yl]acetamide]
33 | 0.063 | Cn1c(CC(=O)Nc2ccc(F)c(I)c2)nc(N2CCOCC2)cc1=O [Example 93, N-(3-iodo-4-fluorophenyl)-2-[1-methyl-4-(morpholin-4-yl)-6-oxo-1,6-dihydropyrimidin-2-yl]acetamide]
